Drawing on US12378186B2, “Inhibitors of meprin α and β” (VIVORYON THERAPEUTICS N.V., priority 2016, dated 2025), this text covers IC50 and Ki for 24 molecules.

Structures are written as SMILES. Read-outs that look alike come from different tables or passages of the source.

One assay concerns the target T1, hMeprin α (Homo sapiens, UniProt Q16819).
T1 sequence (Q16819 66-746): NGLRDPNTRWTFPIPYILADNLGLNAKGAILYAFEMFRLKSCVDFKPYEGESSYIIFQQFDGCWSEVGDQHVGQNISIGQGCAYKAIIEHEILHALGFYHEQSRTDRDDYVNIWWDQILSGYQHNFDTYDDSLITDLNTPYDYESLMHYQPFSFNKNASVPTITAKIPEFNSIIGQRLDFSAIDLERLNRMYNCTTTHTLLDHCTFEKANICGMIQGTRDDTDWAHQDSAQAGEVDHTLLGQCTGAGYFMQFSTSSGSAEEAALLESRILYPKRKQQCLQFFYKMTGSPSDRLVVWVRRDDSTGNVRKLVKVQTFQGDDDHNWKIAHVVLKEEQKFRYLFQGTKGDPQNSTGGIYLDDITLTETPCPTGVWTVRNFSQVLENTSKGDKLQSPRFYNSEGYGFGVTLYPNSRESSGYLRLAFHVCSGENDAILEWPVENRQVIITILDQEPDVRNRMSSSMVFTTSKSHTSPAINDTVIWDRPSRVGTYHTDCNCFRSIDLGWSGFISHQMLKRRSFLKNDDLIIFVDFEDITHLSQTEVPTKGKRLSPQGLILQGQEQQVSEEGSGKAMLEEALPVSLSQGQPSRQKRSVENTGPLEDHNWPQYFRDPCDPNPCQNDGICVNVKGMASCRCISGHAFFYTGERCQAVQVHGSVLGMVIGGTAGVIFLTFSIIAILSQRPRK
Nature of the assay: biochemical. The format is biochemical. As to the method: (§1) A typical assay of 250 μl total volume measured in black 96 well plates consisted of 100 μl buffer, 50 μl enzyme at a final concentration of 5e-8 M to 5e-9 M, 50 μl substrate (0.15 to 80 μM, in buffer, 0.5% DMSO) and 50 μl inhibitor solution (in buffer, 1% DMSO). In case of 125 μl assay volume (black 96 half area well plates) all volumes were cut in half. Enzymatic activity of ADAMs was measured in 384 well plates with 60 μl total assay volume consisting of 20 μl inhibitor, 20 μl buffer, 10 μl enzyme and 10 μl substrate.
(§2) Ki values were assessed combining 4 substrate concentrations (5-40 μM) with at least 5 inhibitor concentrations. […] Initial velocities were determined and converted into concentration units applying a standard curve obtained after complete conversion of different substrate concentrations under assay conditions. All measurements were performed using a fluorescence plate reader (FLUOstar OPTIMA, BMG Labtech) at 30° C. The kinetic parameters were determined at least in duplicates on separate days. The excitation/emission wavelength was 340/420 nm. The kinetic data was evaluated using GraFit software (version 7.0.3, Erithacus Software).
(§3) The following compounds according to the present invention were synthesized using the above general procedures. IC50 refers to the average IC50 values measured as described above, SD (IC50) refers to the standard deviation of the average IC50 values, Ki refers to the average K; values measured as described above, and SD (Ki) to the standard deviation of the average Ki values.

The next assay addresses T2, hMeprin β (Homo sapiens, UniProt Q16820).
T2 sequence (Q16820 62-701): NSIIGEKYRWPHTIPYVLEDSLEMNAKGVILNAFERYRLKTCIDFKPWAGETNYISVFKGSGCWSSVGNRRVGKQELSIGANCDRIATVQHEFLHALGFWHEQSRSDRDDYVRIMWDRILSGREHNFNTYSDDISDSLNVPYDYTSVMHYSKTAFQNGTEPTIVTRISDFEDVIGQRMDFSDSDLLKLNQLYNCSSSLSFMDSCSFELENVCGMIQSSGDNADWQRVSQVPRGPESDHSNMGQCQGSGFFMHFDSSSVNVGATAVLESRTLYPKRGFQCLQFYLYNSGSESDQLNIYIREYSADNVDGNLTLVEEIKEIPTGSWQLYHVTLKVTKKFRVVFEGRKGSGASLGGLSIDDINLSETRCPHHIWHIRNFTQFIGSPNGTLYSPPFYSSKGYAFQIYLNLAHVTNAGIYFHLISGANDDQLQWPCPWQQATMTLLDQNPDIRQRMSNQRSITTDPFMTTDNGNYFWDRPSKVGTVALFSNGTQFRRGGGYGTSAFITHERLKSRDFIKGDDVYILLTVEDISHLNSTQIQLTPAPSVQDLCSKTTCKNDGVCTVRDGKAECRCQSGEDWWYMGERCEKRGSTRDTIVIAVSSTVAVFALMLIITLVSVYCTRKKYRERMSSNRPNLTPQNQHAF
Description: Enzymatic assay, cleavage of internally quenched peptide substrate, hMeprin β. The format is biochemical. The procedure:
as §1, §2, §3

Setting [1] is: average IC50, 10 μM substrate, 30° C., 40 mM HEPES pH 7.4, read-out: Meprin Alpha IC50.
The mark [2] stands for this setting: average Ki, 4 substrate concentrations (5-40 μM), 30° C., 40 mM HEPES pH 7.4, read-out: Meprin Alpha Ki.
Setting [3] is: average IC50, 10 μM substrate, 30° C., 40 mM Tris pH 8.0, read-out: Meprin Beta IC50.

Usually IC50 stands for the concentration that inhibits the measured activity by half. A word on the Ki: it is a measure of affinity in units of concentration, obtained from inhibition or displacement. Turning to `O=C(CN(Cc1ccc(Cl)cc1)Cc1cccc(C(=O)O)c1)NO` [Example 20, 3-[[(4-Chlorophenyl)methyl-[2-(hydroxyamino)-2-oxo-ethyl]amino]methyl]benzoic acid], the figures for the IC50 on hMeprin α (setting [1]) and on hMeprin β (setting [3]) were 1.79 µM and 0.076 µM, respectively. Also, the Ki stood at 0.796 µM on hMeprin α (setting [2]) and 0.033 µM on hMeprin β.

`O=C(CN(Cc1ccc(F)cc1)Cc1cccc(C(=O)O)c1)NO` [Example 21, 3-[[(4-Fluorophenyl)methyl-[2-(hydroxyamino)-2-oxo-ethyl]amino]methyl]benzoic acid]: the IC50 at hMeprin α amounted to 4.21 µM; at hMeprin β (setting [3]), 0.177 µM. For the same molecule, the Ki at hMeprin α and at hMeprin β was 1.68 µM throughout.

Take `O=C(CN(Cc1cccc(C(=O)O)c1)Cc1ccc2c(c1)OCO2)NO` [Example 22, 3-[[1,3-Benzodioxol-5-ylmethyl-[2-(hydroxy-amino)-2-oxo-ethyl]amino]-methyl]benzoic acid]: on hMeprin α (setting [1]), the 50% inhibitory concentration (IC50) was 1.43 µM. Moreover, the Ki at hMeprin α (setting [2]) amounted to 0.606 µM; at hMeprin β, 0.105 µM.

For `COc1ccc(CN(CC(=O)NO)Cc2ccc3c(c2)OCO3)cc1` [Example 23], the 50% inhibitory concentration (IC50) amounted to 1.68 µM on hMeprin α (setting [1]) and 20 µM against hMeprin β.

`COc1ccc(CN(CC(=O)NO)Cc2ccc(C)cc2)cc1` [Example 24, 2-[(4-Methoxyphenyl)methyl-(p-tolylmethyl)-amino]ethanehydroxamic acid]: the IC50 on hMeprin α (setting [1]) came to 2.33 µM; against hMeprin β, 60.9 µM.

As for `COc1ccc(CN(CC(=O)NO)Cc2ccc(F)cc2)cc1` [Example 25, 2-[(4-fluorophenyl)methyl-[(4-methoxyphenyl)-methyl]amino]ethanehydroxamic acid], the IC50 on hMeprin α (setting [1]) is 4.13 µM; against hMeprin β it was 80.4 µM.

`COc1ccc(CN(CC(=O)NO)Cc2ccc(Cl)cc2)cc1` [Example 26, 2-[(4-Chlorophenyl)methyl-[(4-methoxyphenyl)-methyl]amino]ethanehydroxamic acid]: the values for the IC50 on hMeprin α (setting [1]) and against hMeprin β were 1.99 µM and 53.4 µM, respectively.

Regarding `COc1ccc(CN(CC(=O)NO)Cc2cccc(OC)c2)cc1` [Example 27, 2-[(3-Methoxyphenyl)methyl-[(4-methoxyphenyl)-methyl]amino]ethanehydroxamic acid], the IC50 is 3.2 µM on hMeprin α (setting [1]) and 34.5 µM at hMeprin β.

On to `C[C@H](NCc1cccc(C(=O)O)c1)C(=O)NO` [Example 28, 3-[[[(1S)-2-(Hydroxyamino)-1-methyl-2-oxo-ethyl]amino]methyl]benzoic acid], for which the IC50 was 16.7 µM on hMeprin α (setting [1]) and 4.2 µM on hMeprin β (setting [3]). Further, the Ki on hMeprin β was found to be 3.1 µM.

For the molecule `CC(C)[C@H](NCc1cccc(C(=O)O)c1)C(=O)NO` [Example 29, 3-[[[(1S)-1-(Hydroxycarbamoyl)-2-methyl-propyl]amino]methyl]benzoic acid], the IC50 turned out to be 44.4 µM on hMeprin α (setting [1]) and 15.8 µM on hMeprin β (setting [3]).

Regarding `O=C(O)c1cccc(CN[C@@H](Cc2ccccc2)C(=O)NO)c1` [Example 30, 3-[[[(1S)-1-Benzyl-2-(hydroxyamino)-2-oxo-ethyl]amino]methyl]benzoic acid], the results for the IC50 on hMeprin α (setting [1]) and on hMeprin β (setting [3]) were 10.2 µM and 15.5 µM, respectively.

Consider `COc1ccc(CN(CCC(=O)NO)Cc2cccc(C(=O)O)c2)cc1` [Example 31, 3-[[[3-(Hydroxyamino)-3-oxo-propyl]-[(4-methoxyphenyl)methyl]amino]-methyl]benzoic acid], for which the IC50 at hMeprin α (setting [1]) is 0.233 µM; on hMeprin β (setting [3]), 0.643 µM. Moreover, the Ki at hMeprin α (setting [2]) stood at 0.087 µM; at hMeprin β it was 0.165 µM.

As to `CC(C)(NCc1cccc(C(=O)O)c1)C(=O)NO` [Example 32, 3-[[[2-(Hydroxyamino)-1,1-dimethyl-2-oxo-ethyl]amino]methyl]benzoic acid], the figures for the IC50 at hMeprin α (setting [1]) and against hMeprin β were 265 µM and 39.3 µM, respectively.

For the molecule `C[C@@H](NCc1cccc(C(=O)O)c1)C(=O)NO` [Example 33, 3-{[[(1R)-2-(Hydroxyamino)-1-methyl-2-oxo-ethyl]amino]methyl]benzoic acid], the IC50 at hMeprin α (setting [1]) came to 45.1 µM; on hMeprin β (setting [3]), 4.25 µM. The Ki at hMeprin β was 2.58 µM.

Regarding `CC(C)[C@@H](NCc1cccc(C(=O)O)c1)C(=O)NO` [Example 34, 3-[[[(1R)-1-(Hydroxycarbamoyl)-2-methyl-propyl]amino]methyl]benzoic acid], the values for the IC50 on hMeprin α (setting [1]) and at hMeprin β (setting [3]) were 30 µM and 11.8 µM, respectively.

In the case of `O=C(O)c1cccc(CN[C@H](Cc2ccccc2)C(=O)NO)c1` [Example 35, 3-[[[(1R)-1-Benzyl-2-(hydroxyamino)-2-oxo-ethyl]amino]methyl]benzoic acid], the IC50 on hMeprin α (setting [1]) is 2.65 µM; on hMeprin β (setting [3]), 2.91 µM. The Ki on hMeprin β is 1.36 µM.

Turning to `O=C(O)c1cccc(CN[C@@H](C(=O)NO)c2ccccc2)c1` [Example 36, 3-[[[(1R)-2-(Hydroxyamino)-2-oxo-1-phenyl-ethyl]amino]methyl]benzoic acid], the values for the IC50 at hMeprin α (setting [1]) and at hMeprin β (setting [3]) were 21.7 µM and 11.7 µM, respectively.

Consider `O=C(O)c1cccc(CN[C@H](C(=O)NO)c2ccccc2)c1` [Example 37, 3-[[[(1S)-2-(Hydroxyamino)-2-oxo-1-phenyl-ethyl]amino]methyl]benzoic acid], for which the IC50 on hMeprin α (setting [1]) came to 26.3 µM; at hMeprin β (setting [3]), 12.2 µM.

With `COc1ccc(CN(CCCC(=O)NO)Cc2cccc(C(=O)O)c2)cc1` [Example 38, 3-[[[4-(hydroxyamino)-4-oxo-butyl]-[(4-methoxyphenyl)methyl]amino]-methyl]benzoic acid], the IC50 at hMeprin α (setting [1]) worked out at 2.61 µM; at hMeprin β (setting [3]), 0.742 µM. The Ki on hMeprin α (setting [2]) is 0.948 µM; on hMeprin β, 0.225 µM.

On to `O=C(O)CC[C@H](NCc1cccc(C(=O)O)c1)C(=O)NO` [Example 39, 3-[[[(1S)-3-carboxy-1-(hydroxylcarbamoyl)-propyl]amino]methyl]benzoic acid], for which the IC50 at hMeprin α (setting [1]) is 8.66 µM; at hMeprin β (setting [3]), 0.654 µM. The Ki on hMeprin α (setting [2]) is 2.53 µM; at hMeprin β it was 0.325 µM.

As to `N#Cc1cccc(CN(CC(=O)NO)Cc2cccc(C#N)c2)c1` [Example 40, 2-[bis[(3-cyanophenyl)methyl]amino]-ethanehydroxamic acid], the values for the IC50 on hMeprin α (setting [1]) and on hMeprin β (setting [3]) were 1.47 µM and 12 µM, respectively. The Ki at hMeprin α (setting [2]) was 0.521 µM.

For `NC(=O)c1cccc(CN(CC(=O)NO)Cc2cccc(C(N)=O)c2)c1` [Example 41, 3-[[(3-carbamoylphenyl)methyl-[2-(hydroxyamino)-2-oxo-ethyl]amino]methyl]benzamide], the IC50 was 2.9 µM on hMeprin α (setting [1]) and 13.1 µM at hMeprin β (setting [3]). Moreover, the Ki on hMeprin α (setting [2]) was 0.852 µM.

Turning to `COC(=O)c1cccc(CN(CC(=O)NO)Cc2cccc(C(N)=O)c2)c1` [Example 42], the IC50 stood at 3.54 µM on hMeprin α (setting [1]) and 25 µM on hMeprin β. Further, at hMeprin α (setting [2]), the inhibition constant Ki amounted to 1.19 µM.

As for `COC(=O)c1cccc(CN(CC(=O)NO)Cc2cccc(C(=O)O)c2)c1` [Example 43], the 50% inhibitory concentration (IC50) stood at 6.28 µM at hMeprin α (setting [1]) and 0.516 µM at hMeprin β. Also, the Ki worked out at 1.74 µM on hMeprin α (setting [2]) and 0.152 µM on hMeprin β.
